# Measured values: ChEMBL document CHEMBL1629667, “Activities of dalbavancin against a worldwide collection of 81,673 gram-positive bacterial isolates” (2009)
# What was measured:
# Assay type in all cases: functional
# Enterococcus faecium [1] = test: Antimicrobial activity against Enterococcus faecium VanA assessed as growth inhibition at =<[…] ug/ml by broth microdilution method
# [2] = Antimicrobial activity against Beta-hemolytic Streptococcus sp. 'group C' assessed as growth inhibition at 0.06 ug/ml by broth microdilution method
# Enterococcus faecalis [3] = test: Antimicrobial activity against Enterococcus faecalis VanA assessed as growth inhibition at 4 ug/ml by broth microdilution method
# Enterococcus faecium [4] = test: Antimicrobial activity against Enterococcus faecium VanB assessed as growth inhibition at 0.12 ug/ml by broth microdilution method
# Enterococcus faecalis [5] = test: Antimicrobial activity against Enterococcus faecalis VanA assessed as growth inhibition at 0.12 ug/ml by broth microdilution method
# Enterococcus faecium [6] = test: Antimicrobial activity against Enterococcus faecium VanA assessed as growth inhibition at 2 ug/ml by broth microdilution method
# Enterococcus faecalis [7] = test: Antimicrobial activity against Enterococcus faecalis VanB assessed as growth inhibition at 0.12 ug/ml by broth microdilution method
# Streptococcus sp. [8] = test: Antimicrobial activity against Beta-hemolytic Streptococcus sp. Group F assessed as growth inhibition at 0.12 ug/ml by broth microdilution method
# Staphylococcus [9] = test: Antimicrobial activity against Oxacillin-susceptible coagulase-negative Staphylococcus assessed as percent resistant isolate by broth microdilution method
# [10] = test system: Streptococcus sp. 'group A'; test: Antimicrobial activity against Beta-hemolytic Streptococcus sp. 'group A' assessed as growth inhibition at 0.25 ug/ml by broth microdilution method
# Enterococcus faecium [11] = test: Antimicrobial activity against Enterococcus faecium VanB assessed as growth inhibition at 0.5 ug/ml by broth microdilution method
# Staphylococcus aureus [12] = test: Antimicrobial activity against Oxacillin-susceptible Staphylococcus aureus assessed as percent susceptible isolate by broth microdilution method
# Enterococcus faecalis [13] = test: Antimicrobial activity against Enterococcus faecalis VanA assessed as growth inhibition at 2 ug/ml by broth microdilution method
# Enterococcus faecalis [14] = test: Antimicrobial activity against Enterococcus faecalis VanB assessed as growth inhibition at 1 ug/ml by broth microdilution method
# Enterococcus faecium [15] = test: Antimicrobial activity against Enterococcus faecium VanA assessed as growth inhibition at 4 ug/ml by broth microdilution method
# Streptococcus [16] = test: Antimicrobial activity against viridans group Streptococcus assessed as percent susceptible isolate by broth microdilution method
# Staphylococcus [17] = test: Antimicrobial activity against Oxacillin-resistant coagulase-negative Staphylococcus assessed as percent susceptible isolate by broth microdilution method
# Staphylococcus aureus [18] = test: Antimicrobial activity against Oxacillin-susceptible Staphylococcus aureus by broth microdilution method
# Enterococcus faecalis [19] = test: Antimicrobial activity against Enterococcus faecalis VanB assessed as growth inhibition at 0.5 ug/ml by broth microdilution method
# Enterococcus faecalis [20] = test: Antimicrobial activity against Enterococcus faecalis VanA assessed as growth inhibition at =<[…] ug/ml by broth microdilution method
# Enterococcus faecium [21] = test: Antimicrobial activity against Enterococcus faecium VanA assessed as growth inhibition at 0.5 ug/ml by broth microdilution method
# [22] = test system: Streptococcus sp. 'group B'; test: Antimicrobial activity against Beta-hemolytic Streptococcus sp. 'group B' assessed as growth inhibition at 0.12 ug/ml by broth microdilution method
# Staphylococcus aureus [23] = test: Antimicrobial activity against Oxacillin-susceptible Staphylococcus aureus assessed as percent resistant isolates by broth microdilution method
# Enterococcus faecium [24] = test: Antimicrobial activity against Enterococcus faecium VanA assessed as growth inhibition at 0.25 ug/ml by broth microdilution method
# Enterococcus faecium [25] = test: Antimicrobial activity against Enterococcus faecium VanB assessed as growth inhibition at =<[…] ug/ml by broth microdilution method
# Streptococcus [26] = test: Antimicrobial activity against Beta-hemolytic Streptococcus assessed as percent susceptible isolate by broth microdilution method
# [27] = test system: Streptococcus sp. 'group A'; test: Antimicrobial activity against Beta-hemolytic Streptococcus sp. 'group A' assessed as growth inhibition at =<[…] ug/ml by broth microdilution method
# [28] = test system: Streptococcus sp. 'group A'; test: Antimicrobial activity against Beta-hemolytic Streptococcus sp. 'group A' assessed as growth inhibition at 0.06 ug/ml by broth microdilution method
# Enterococcus faecalis [29] = test: Antimicrobial activity against Enterococcus faecalis VanB assessed as growth inhibition at 0.06 ug/ml by broth microdilution method
# Enterococcus faecalis [30] = test: Antimicrobial activity against Enterococcus faecalis VanB assessed as growth inhibition at 0.25 ug/ml by broth microdilution method
# Staphylococcus aureus [31] = test: Antimicrobial activity against Oxacillin-resistant Staphylococcus aureus assessed as percent susceptible isolate by broth microdilution method
# Enterococcus faecium [32] = test: Antimicrobial activity against Enterococcus faecium VanB assessed as growth inhibition at 1 ug/ml by broth microdilution method
# Enterococcus faecium [33] = test: Antimicrobial activity against Enterococcus faecium VanB assessed as growth inhibition at 0.25 ug/ml by broth microdilution method
# Staphylococcus [34] = test: Antimicrobial activity against Oxacillin-resistant coagulase-negative Staphylococcus assessed as percent resistant isolate by broth microdilution method
# Enterococcus faecium [35] = test: Antimicrobial activity against Enterococcus faecium VanA assessed as growth inhibition at 0.12 ug/ml by broth microdilution method
# Enterococcus faecalis [36] = test: Antimicrobial activity against Enterococcus faecalis VanB assessed as growth inhibition at 2 ug/ml by broth microdilution method
# [37] = test system: Streptococcus sp. 'group A'; test: Antimicrobial activity against Beta-hemolytic Streptococcus sp. 'group A' assessed as growth inhibition at 0.12 ug/ml by broth microdilution method
# Enterococcus faecalis [38] = test: Antimicrobial activity against Enterococcus faecalis VanB assessed as growth inhibition at 4 ug/ml by broth microdilution method
# Enterococcus faecium [39] = test: Antimicrobial activity against Enterococcus faecium VanB assessed as growth inhibition at 2 ug/ml by broth microdilution method
# Enterococcus faecium [40] = test: Antimicrobial activity against Enterococcus faecium VanA assessed as growth inhibition at 1 ug/ml by broth microdilution method
# Staphylococcus aureus [41] = test: Antimicrobial activity against Oxacillin-resistant Staphylococcus aureus assessed as percent resistant isolate by broth microdilution method
# [42] = Antimicrobial activity against Beta-hemolytic Streptococcus sp. 'group G' assessed as growth inhibition at =<[…] ug/ml by broth microdilution method
# [43] = test system: Streptococcus sp. 'group B'; test: Antimicrobial activity against Beta-hemolytic Streptococcus sp. 'group B' assessed as growth inhibition at =<[…] ug/ml by broth microdilution method
# Enterococcus faecalis [44] = test: Antimicrobial activity against Enterococcus faecalis VanA assessed as growth inhibition at 1 ug/ml by broth microdilution method
# Streptococcus [45] = test: Antimicrobial activity against Beta-hemolytic Streptococcus by broth microdilution method
# Staphylococcus aureus [46] = test: Antimicrobial activity against Oxacillin-resistant Staphylococcus aureus by broth microdilution method
# Streptococcus sp. [47] = test: Antimicrobial activity against Beta-hemolytic Streptococcus sp. Group F assessed as growth inhibition at 0.06 ug/ml by broth microdilution method
# Enterococcus faecalis [48] = test: Antimicrobial activity against Enterococcus faecalis VanA assessed as growth inhibition at 0.06 ug/ml by broth microdilution method
smiles,measurement,setting,value
CN[C@H](CC(C)C)C(=O)N[C@H]1C(=O)N[C@@H](CC(N)=O)C(=O)N[C@H]2C(=O)N[C@H]3C(=O)N[C@H](C(=O)N[C@H](C(=O)O)c4cc(O)cc(O)c4-c4cc3ccc4O)[C@H](O)c3ccc(c(Cl)c3)Oc3cc2cc(c3O[C@@H]2O[C@H](CO)[C@@H](O)[C@H](O)[C@H]2O[C@H]2C[C@](C)(N)[C@H](O)[C@H](C)O2)Oc2ccc(cc2Cl)[C@H]1O [VANCOMYCIN],inhibition (INH),Enterococcus faecium [1],0.1%
same,inhibition at 0.06 µg/mL,[2],100%
same,inhibition at 4 µg/mL,Enterococcus faecalis [3],14.8%
same,inhibition at 0.12 µg/mL,Enterococcus faecium [4],71.6%
same,inhibition at 0.12 µg/mL,Enterococcus faecalis [5],2.6%
same,inhibition at 2 µg/mL,Enterococcus faecium [6],18.3%
same,inhibition at 0.12 µg/mL,Enterococcus faecalis [7],70.2%
same,inhibition at 0.12 µg/mL,Streptococcus sp. [8],100%
same,Activity,Staphylococcus [9],0%
same,inhibition at 0.25 µg/mL,[10],100%
same,inhibition at 0.5 µg/mL,Enterococcus faecium [11],85.1%
same,Activity,Staphylococcus aureus [12],>99.9%
same,inhibition at 2 µg/mL,Enterococcus faecalis [13],7.4%
same,inhibition at 1 µg/mL,Enterococcus faecalis [14],78.6%
same,inhibition at 4 µg/mL,Enterococcus faecium [15],33.1%
same,Activity,Streptococcus [16],99.9%
same,Activity,Staphylococcus [17],>99.9%
same,MIC50,Staphylococcus aureus [18],1 µg/mL
same,MIC90,Staphylococcus aureus [18],1 µg/mL
same,inhibition at 0.5 µg/mL,Enterococcus faecalis [19],75%
same,inhibition (INH),Enterococcus faecalis [20],0.4%
same,inhibition at 0.5 µg/mL,Enterococcus faecium [21],6.6%
same,inhibition at 0.12 µg/mL,[22],99.6%
same,Activity,Staphylococcus aureus [23],0%
same,inhibition at 0.25 µg/mL,Enterococcus faecium [24],3.1%
same,inhibition (INH),Enterococcus faecium [25],26.1%
same,Activity,Streptococcus [26],100%
same,inhibition (INH),[27],98.8%
same,inhibition at 0.06 µg/mL,[28],99.9%
same,inhibition at 0.06 µg/mL,Enterococcus faecalis [29],33.3%
same,inhibition at 0.25 µg/mL,Enterococcus faecalis [30],70.2%
same,Activity,Staphylococcus aureus [31],>99.9%
same,inhibition at 1 µg/mL,Enterococcus faecium [32],90.3%
same,inhibition at 0.25 µg/mL,Enterococcus faecium [33],77.6%
same,Activity,Staphylococcus [34],0%
same,inhibition at 0.12 µg/mL,Enterococcus faecium [35],1.2%
same,inhibition at 2 µg/mL,Enterococcus faecalis [36],85.7%
same,inhibition at 0.12 µg/mL,[37],> 99.9%
same,inhibition at 4 µg/mL,Enterococcus faecalis [38],91.7%
same,inhibition at 2 µg/mL,Enterococcus faecium [39],94%
same,inhibition at 1 µg/mL,Enterococcus faecium [40],11.5%
same,Activity,Staphylococcus aureus [41],0%
same,inhibition (INH),[42],95.6%
same,inhibition (INH),[43],90.3%
same,inhibition at 1 µg/mL,Enterococcus faecalis [44],4.3%
same,MIC50,Streptococcus [45],0.5 µg/mL
same,MIC90,Streptococcus [45],0.5 µg/mL
same,MIC50,Staphylococcus aureus [46],1 µg/mL
same,MIC90,Staphylococcus aureus [46],1 µg/mL
same,inhibition at 0.06 µg/mL,Streptococcus sp. [47],97.1%
same,inhibition at 0.06 µg/mL,Enterococcus faecalis [48],0.9%
